According to the NIST ThermoML archive (doi:10.1021/je060271a):

Details: 323.15 K, Liquid, Vibrating tube method

CCCCCCC(=O)OCC(COC(=O)CCCCCC)(COC(=O)CCCCCC)COC(=O)CCCCCC [pentaerythritol tetraheptanoate]
Details | mass density [kg/m3]
10134 kPa | 962.4
10149 kPa | 962.4
10164 kPa | 962.4
10178 kPa | 962.4
10196 kPa | 962.4
10211 kPa | 962.5
10229 kPa | 962.4
10244 kPa | 962.5
10259 kPa | 962.5
10274 kPa | 962.5
10292 kPa | 962.5
10307 kPa | 962.6
10322 kPa | 962.6
10338 kPa | 962.5
10356 kPa | 962.7
10371 kPa | 962.6
10386 kPa | 962.7
10405 kPa | 962.7
10420 kPa | 962.7
10436 kPa | 962.7
10468 kPa | 962.6
10487 kPa | 962.6
10503 kPa | 962.8
10519 kPa | 962.7
10538 kPa | 962.7
10553 kPa | 962.7
10572 kPa | 962.8
10588 kPa | 962.7
10604 kPa | 962.8
10620 kPa | 962.8
10639 kPa | 962.8
10656 kPa | 962.8
10672 kPa | 962.7
10692 kPa | 962.8
10708 kPa | 962.8
10725 kPa | 962.8
10741 kPa | 962.8
10761 kPa | 962.8
10777 kPa | 962.8
10794 kPa | 962.9
10814 kPa | 962.9
10831 kPa | 963
10851 kPa | 963
10868 kPa | 963
10885 kPa | 962.9
10902 kPa | 963
10923 kPa | 963
10939 kPa | 963
11105 kPa | 963.1
11376 kPa | 963.3
11395 kPa | 963.2
11414 kPa | 963.3
11433 kPa | 963.2
11455 kPa | 963.3
11474 kPa | 963.3
11493 kPa | 963.4
11516 kPa | 963.3
11535 kPa | 963.3
11558 kPa | 963.4
11577 kPa | 963.4
11597 kPa | 963.4
11616 kPa | 963.5
11640 kPa | 963.4
11659 kPa | 963.3
11979 kPa | 963.7
12025 kPa | 963.7
12045 kPa | 963.6
12070 kPa | 963.6
12091 kPa | 963.7
12113 kPa | 963.7
12138 kPa | 963.7
12159 kPa | 963.7
12181 kPa | 963.8
12205 kPa | 963.8
12226 kPa | 963.7
12252 kPa | 963.7
12274 kPa | 963.9
12296 kPa | 963.8
12322 kPa | 963.9
12344 kPa | 963.9
12367 kPa | 964
12389 kPa | 963.9
12416 kPa | 963.9
12438 kPa | 964
12488 kPa | 963.9
12510 kPa | 963.9
12533 kPa | 964.1
12583 kPa | 964.1
12606 kPa | 964.1
12634 kPa | 964.1
12680 kPa | 964.2
12756 kPa | 964.1
12832 kPa | 964.3
12856 kPa | 964.2
12884 kPa | 964.2
12908 kPa | 964.2
12937 kPa | 964.3
13227 kPa | 964.5
14188 kPa | 965.1
14278 kPa | 965.1
14314 kPa | 965
14343 kPa | 965.1
14609 kPa | 965.3
14641 kPa | 965.4
14675 kPa | 965.3
14706 kPa | 965.3
14744 kPa | 965.4
14917 kPa | 965.5
14957 kPa | 965.6
14988 kPa | 965.6
15013 kPa | 965.6
15044 kPa | 965.4
15070 kPa | 965.6
15097 kPa | 965.6
15124 kPa | 965.6
15154 kPa | 965.6
15175 kPa | 965.8
15192 kPa | 965.7
15213 kPa | 965.7
15230 kPa | 965.7
15251 kPa | 965.6
15268 kPa | 965.8
15287 kPa | 965.7
15328 kPa | 965.7
15347 kPa | 965.7
15381 kPa | 965.7
15629 kPa | 966.1
15638 kPa | 966.1
15649 kPa | 966
15707 kPa | 966
15727 kPa | 966
15736 kPa | 966
15745 kPa | 966
15765 kPa | 966.1
15774 kPa | 966.1
15785 kPa | 966.1
15794 kPa | 966
15804 kPa | 965.9
15814 kPa | 966
15824 kPa | 966.2
15833 kPa | 966.2
15844 kPa | 966.1
15863 kPa | 966.1
15903 kPa | 966.2
15953 kPa | 966.3
15962 kPa | 966.3
15972 kPa | 966.2
15981 kPa | 966.2
15992 kPa | 966.3
16003 kPa | 966.2
16012 kPa | 966.2
16021 kPa | 966.3
16033 kPa | 966.3
16042 kPa | 966.2
16052 kPa | 966.3
16063 kPa | 966.3
16072 kPa | 966.3
16083 kPa | 966.2
16092 kPa | 966.3
16102 kPa | 966.3
16112 kPa | 966.2
16123 kPa | 966.2
16133 kPa | 966.3
16142 kPa | 966.4
16154 kPa | 966.3
16163 kPa | 966.3
16175 kPa | 966.3
16184 kPa | 966.3
16194 kPa | 966.4
16203 kPa | 966.4
16215 kPa | 966.3
16224 kPa | 966.3
16234 kPa | 966.5
16246 kPa | 966.4
16256 kPa | 966.3
16267 kPa | 966.4
16277 kPa | 966.3
16286 kPa | 966.4
16296 kPa | 966.5
16308 kPa | 966.3
16317 kPa | 966.4
16329 kPa | 966.4
16339 kPa | 966.3
16349 kPa | 966.4
16360 kPa | 966.4
16370 kPa | 966.6
16380 kPa | 966.4
16390 kPa | 966.3
16402 kPa | 966.4
16412 kPa | 966.4
16422 kPa | 966.5
16434 kPa | 966.6
16443 kPa | 966.5
16455 kPa | 966.5
16465 kPa | 966.5
16475 kPa | 966.5
16487 kPa | 966.6
16496 kPa | 966.5
16507 kPa | 966.6
16519 kPa | 966.6
16529 kPa | 966.6
16539 kPa | 966.6
16551 kPa | 966.5
16562 kPa | 966.6
16572 kPa | 966.5
16582 kPa | 966.6
16594 kPa | 966.5
16604 kPa | 966.7
16614 kPa | 966.6
16626 kPa | 966.8
16636 kPa | 966.6
16649 kPa | 966.4
16657 kPa | 966.6
16670 kPa | 966.7
16680 kPa | 966.6
16692 kPa | 966.6
16702 kPa | 966.7
16712 kPa | 966.6
16725 kPa | 966.6
16735 kPa | 966.7
16823 kPa | 966.7
16834 kPa | 966.7
16844 kPa | 966.8
16857 kPa | 966.6
